Data published in ChEMBL document CHEMBL6109137, “Design, Synthesis, Evaluation, and SAR of 5-Phenylisoindoline Derivatives, a Potent Class of Small-Molecule Inhibitors Targeting the Programmed Cell Death-1/Programmed Cell Death-Ligand 1 (PD-1/PD-L1) Interaction” (J Med Chem, 2025).
Calls of active or inactive are those of the source. The calls are words filed in the database; no cut-off is given here.

Assays:
[1] = Toxicity in C57BL/6J mouse implanted with mouse MC38 cells assessed as change in HGB count at 40 to 160 mg/kg, IG qd for 7 days; assay type: organism-based; settings: in vivo, po, 168 h, dose 40-160 mg/kg, time 7 day
[2] = Toxicity in C57BL/6J mouse implanted with mouse MC38 cells assessed as liver weight ratio at 40 to 160 mg/kg, IG qd for 7 days; assay type: organism-based; settings: in vivo, po, 168 h, dose 40-160 mg/kg, time 7 day
[3] = Toxicity in C57BL/6J mouse implanted with mouse MC38 cells assessed as change in ureas level at 40 to 160 mg/kg, IG qd for 7 days; assay type: organism-based; settings: in vivo, po, 168 h, dose 40-160 mg/kg, time 7 day
[4] = Toxicity in C57BL/6J mouse implanted with mouse MC38 cells assessed as body weight change at 40 to 160 mg/kg, IG qd for 7 days; assay type: organism-based; settings: in vivo, po, 168 h, dose 40-160 mg/kg, time 7 day
[5] = AUC (0 to infinity) in Sprague-Dawley rat at 10 mg/kg, ip measured for 24 hrs by LC-MS/MS analysis; assay type: ADME, organism-based; settings: in vivo
[6] = Toxicity in C57BL/6J mouse implanted with mouse MC38 cells assessed as change in spleen index at 5 to 20 mg/kg, ip qd for 13 days; assay type: organism-based; settings: in vivo, 312 h, dose 5-20 mg/kg, time 13 day
[7] = Stability in human plasma at 1 mM measured up to 7 hrs by HPLC analysis; assay type: ADME, cell-free; settings: 1000 µM
[8] = Tmax in Sprague-Dawley rat at 10 mg/kg, ip measured for 24 hrs by LC-MS/MS analysis; assay type: ADME, organism-based; settings: in vivo
MC-38 [9] = experiment: Inhibition of PD-L1-induced cell migration in mouse MC38 cells at 5 uM measured up to 24 hrs by scratch assay; assay type: functional, cell-based
[10] = Half life in Sprague-Dawley rat at 20 mg/kg, po measured for 24 hrs by LC-MS/MS analysis; assay type: ADME, organism-based; settings: in vivo
[11] = Half life in Sprague-Dawley rat at 10 mg/kg, ip measured for 24 hrs by LC-MS/MS analysis; assay type: ADME, organism-based; settings: in vivo
[12] = Toxicity in C57BL/6J mouse implanted with mouse MC38 cells assessed as animal mortality at 5 to 20 mg/kg, ip qd for 13 days; assay type: organism-based; settings: in vivo, 312 h, dose 5-20 mg/kg, time 13 day
[13] = Tmax in Sprague-Dawley rat at 20 mg/kg, po measured for 24 hrs by LC-MS/MS analysis; assay type: ADME, organism-based; settings: in vivo
[14] = Binding affinity to human PD-L1 assessed as dissociation constant by SPR analysis
PBMC = experiment: Inhibition of apoptosis in human PBMC cells assessed as reduction in PD-L1-induced proportion of terminal phase apoptotic cells by flow cytometry; assay type: functional, cell-based
[15] = Toxicity in C57BL/6J mouse implanted with mouse MC38 cells assessed as change in serum urea level at 5 to 20 mg/kg, ip qd for 13 days; assay type: organism-based; settings: in vivo, 312 h, dose 5-20 mg/kg, time 13 day
[16] = Cytotoxicity against human HaCaT cells measured after 48 hrs by MTT assay; assay type: toxicity, cell-based
Mus musculus [17] = experiment: Restoration of immune function in C57BL/6J mouse implanted with mouse MC38 cells assessed as increase in serum IL-6 level administered intraperitoneally once daily for 13 days by ELISA; assay type: functional, organism-based; settings: dose 5-20 mg/kg, route ip, time 13.0 day
[18] = Toxicity in C57BL/6J mouse implanted with mouse MC38 cells assessed as change in CREA-SOX level at 40 to 160 mg/kg, IG qd for 7 days; assay type: organism-based; settings: in vivo, po, 168 h, dose 40-160 mg/kg, time 7 day
[19] = Clearance in Sprague-Dawley rat at 10 mg/kg, ip measured for 24 hrs by LC-MS/MS analysis; assay type: ADME, organism-based; settings: in vivo
[20] = Toxicity in C57BL/6J mouse implanted with mouse MC38 cells assessed as change in monocytes count at 40 to 160 mg/kg, IG qd for 7 days; assay type: organism-based; settings: in vivo, po, 168 h, dose 40-160 mg/kg, time 7 day
[21] = Cytotoxicity against human L02 cells measured after 48 hrs by MTT assay; assay type: toxicity, cell-based
[22] = AUC (0 to infinity) in Sprague-Dawley rat at 1 mg/kg, iv measured for 24 hrs by LC-MS/MS analysis; assay type: ADME, organism-based; settings: in vivo
[23] = Cytotoxicity against mouse MC38 cells measured after 48 hrs by MTT assay; assay type: toxicity, cell-based, MC-38
[24] = AUC (0 to 24 hrs) in Sprague-Dawley rat at 20 mg/kg, po measured for 24 hrs by LC-MS/MS analysis; assay type: ADME, organism-based; settings: in vivo
[25] = Toxicity in C57BL/6J mouse implanted with mouse MC38 cells assessed as change in neutrophils count at 40 to 160 mg/kg, IG qd for 7 days; assay type: organism-based; settings: in vivo, po, 168 h, dose 40-160 mg/kg, time 7 day
[26] = Toxicity in C57BL/6J mouse implanted with mouse MC38 cells assessed as change in heart index at 5 to 20 mg/kg, ip qd for 13 days; assay type: organism-based; settings: in vivo, 312 h, dose 5-20 mg/kg, time 13 day
[27] = Toxicity in C57BL/6J mouse implanted with mouse MC38 cells assessed as animal mortality at 40 to 160 mg/kg, IG qd for 7 days; assay type: organism-based; settings: in vivo, po, 168 h, dose 40-160 mg/kg, time 7 day
MC-38 [28] = experiment: Antitumor activity against mouse MC38 cells implanted in C57BL/6J mouse at 5 to 20 mg/kg, ip qd; assay type: functional, organism-based; settings: dose 5-20 mg/kg, time 13.0 day
MC-38 [29] = experiment: Antitumor activity against mouse MC38 cells implanted in C57BL/6J mouse assessed as increase in ratio of CD8+/CD4+ T cells at 20 mg/kg, ip qd for 13 days by flow cytometry; assay type: functional, organism-based; settings: time 13.0 day
[30] = Cytotoxicity against HEK293T cells measured after 48 hrs by MTT assay; assay type: toxicity, cell-based, HEK-293T; settings: human
[31] = Cytotoxicity against human BEAS-2B cells measured after 48 hrs by MTT assay; assay type: toxicity, cell-based
[32] = AUC (0 to 24 hrs) in Sprague-Dawley rat at 10 mg/kg, ip measured for 24 hrs by LC-MS/MS analysis; assay type: ADME, organism-based; settings: in vivo
[33] = Toxicity in C57BL/6J mouse implanted with mouse MC38 cells assessed as change in body weight at 5 to 20 mg/kg, ip qd for 13 days; assay type: organism-based; settings: in vivo, 312 h, dose 5-20 mg/kg, time 13 day
[34] = Cytotoxicity against human PBMC cells assessed as inhibition of cell viability by CCK8 assay; assay type: toxicity, cell-based
Mus musculus [35] = experiment: Restoration of immune function in C57BL/6J mouse implanted with mouse MC38 cells assessed as increase in serum IFN-gamma level administered intraperitoneally once daily for 13 days by ELISA; assay type: functional, organism-based; settings: dose 5-20 mg/kg, route ip, time 13.0 day
[36] = Toxicity in C57BL/6J mouse implanted with mouse MC38 cells assessed as change in RBC count at 40 to 160 mg/kg, IG qd for 7 days; assay type: organism-based; settings: in vivo, po, 168 h, dose 40-160 mg/kg, time 7 day
[37] = Toxicity in C57BL/6J mouse implanted with mouse MC38 cells assessed as lung weight ratio at 40 to 160 mg/kg, IG qd for 7 days; assay type: organism-based; settings: in vivo, po, 168 h, dose 40-160 mg/kg, time 7 day
MC-38 [38] = experiment: Antitumor activity against mouse MC38 cells implanted in C57BL/6J mouse assessed as tumor growth inhibition at 160 mg/kg, IG qd; assay type: functional, organism-based; settings: time 7.0 day
[39] = Toxicity in C57BL/6J mouse implanted with mouse MC38 cells assessed as brain weight ratio at 40 to 160 mg/kg, IG qd for 7 days; assay type: organism-based; settings: in vivo, po, 168 h, dose 40-160 mg/kg, time 7 day
MC-38 [40] = experiment: Antitumor activity against mouse MC38 cells implanted in C57BL/6J mouse assessed as increase in infiltration of CD8+ T cells at 5 to 20 mg/kg, ip qd for 13 days by IHC analysis; assay type: functional, organism-based; settings: dose 5-20 mg/kg, time 13.0 day

With `C[C@H](N)C(=O)N1Cc2ccc(-c3cccc(-c4ccc5c(c4)OCCO5)c3Cl)cc2C1.Cl` the Activity [1] was “Non-toxic”, the Activity [2] was “Non-toxic” and the Activity [3] was “Non-toxic”. For the same molecule, the Activity [4] was “Non-toxic”, the AUC(0-inf) [5] was 1620 ng·h/mL and the Activity [6] was “Non-toxic”. The Stability [7] was “Stable”, the Tmax [8] was 0.42 h and the inhibition (MC-38 [9]) was “Active”. The half-life [10] was 3.58 h, the half-life [11] was 4.02 h and the Activity [12] was “Non-toxic”. The Tmax [13] was 2.5 h, the Kd [14] was 0.23 µM and the inhibition (PBMC) was “Active”. The Activity [15] was “Non-toxic”, the IC50 at 48 h [16] was greater than 100 µM and the Activity (Mus musculus [17]) was “Dose-dependent-effect”. The Activity [18] was “Non-toxic”, the CL/F [19] was 103 mL/min/kg and the Activity [20] was “Non-toxic”. It also gave an IC50 at 48 h [21] greater than 10 µM, an AUC(0-inf) [22] of 191 ng·h/mL and an IC50 at 48 h [23] of 12 µM. For the same molecule, the AUC(0-t) at 24 h [24] was 467 ng·h/mL, the Activity [25] was “Non-toxic” and the Activity [26] was “Non-toxic”. For the same molecule, the Activity [27] was “Non-toxic”, the Activity (MC-38 [28]) was “Time-dependent-effect” and the Activity (MC-38 [29]) was “Active”. It also gave an IC50 at 48 h [30] greater than 10 µM, an IC50 at 48 h [31] greater than 10 µM and an AUC(0-t) at 24 h [32] of 1010 ng·h/mL. For the same molecule, the Activity [33] was “Non-toxic”, the IC50 [34] was greater than 5 µM and the Activity (Mus musculus [35]) was “Dose-dependent-effect”. For the same molecule, the Activity [36] was “Non-toxic”, the Activity [37] was “Non-toxic” and the inhibition (MC-38 [38]) was “Time-dependent-effect”. For the same molecule, the Activity [39] was “Non-toxic” and the Activity (MC-38 [40]) was “Active”.
